# Test results taken from patent EP4722207A1, “OXOISOINDOLINYL-SUBSTITUTED TETRAHYDROPYRIMIDINEDIONE DERIVATIVE AND USE THEREOF” (Gluetacs Therapeutics (Shanghai) Co., Ltd., priority 2023, dated 2024).
# Tests used:
# Type in all cases: cell-based
# [1] = target: T1, WEE1 (Homo sapiens, UniProt P30291+Q96SW2); assay: Western-blot assay, substrate protein degradation in hPBMCs: WEE1; settings: for WEE1 substrate protein remaining %: compounds at 50 nM and 500 nM, 24 hours; for substrate protein remaining % WEE1: 24 hours of compound treatment, 50 nM and 500 nM
# T1 construct: effects of the compounds of the present disclosure on the expression of target proteins in cells; endogenous in cells; host or cells: human PBMCs (hPBMCs)
# T1 sequence (P30291 whole entry): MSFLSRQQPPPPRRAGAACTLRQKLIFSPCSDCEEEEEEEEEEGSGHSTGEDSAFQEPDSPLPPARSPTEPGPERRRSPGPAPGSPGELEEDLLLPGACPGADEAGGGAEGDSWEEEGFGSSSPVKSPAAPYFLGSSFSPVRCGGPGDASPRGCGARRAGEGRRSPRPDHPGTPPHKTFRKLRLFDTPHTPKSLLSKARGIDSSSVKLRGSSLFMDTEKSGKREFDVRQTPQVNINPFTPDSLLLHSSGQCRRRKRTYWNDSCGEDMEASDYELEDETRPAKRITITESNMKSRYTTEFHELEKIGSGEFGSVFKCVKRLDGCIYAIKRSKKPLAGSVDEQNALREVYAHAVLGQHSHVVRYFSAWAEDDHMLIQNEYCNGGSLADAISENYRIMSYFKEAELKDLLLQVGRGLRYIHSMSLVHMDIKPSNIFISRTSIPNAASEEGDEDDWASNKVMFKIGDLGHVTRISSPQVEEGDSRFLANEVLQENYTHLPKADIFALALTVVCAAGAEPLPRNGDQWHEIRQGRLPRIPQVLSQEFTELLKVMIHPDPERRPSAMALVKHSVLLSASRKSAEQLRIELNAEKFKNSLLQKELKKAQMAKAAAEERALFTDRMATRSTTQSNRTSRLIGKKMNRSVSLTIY
# T1 sequence (Q96SW2 whole entry): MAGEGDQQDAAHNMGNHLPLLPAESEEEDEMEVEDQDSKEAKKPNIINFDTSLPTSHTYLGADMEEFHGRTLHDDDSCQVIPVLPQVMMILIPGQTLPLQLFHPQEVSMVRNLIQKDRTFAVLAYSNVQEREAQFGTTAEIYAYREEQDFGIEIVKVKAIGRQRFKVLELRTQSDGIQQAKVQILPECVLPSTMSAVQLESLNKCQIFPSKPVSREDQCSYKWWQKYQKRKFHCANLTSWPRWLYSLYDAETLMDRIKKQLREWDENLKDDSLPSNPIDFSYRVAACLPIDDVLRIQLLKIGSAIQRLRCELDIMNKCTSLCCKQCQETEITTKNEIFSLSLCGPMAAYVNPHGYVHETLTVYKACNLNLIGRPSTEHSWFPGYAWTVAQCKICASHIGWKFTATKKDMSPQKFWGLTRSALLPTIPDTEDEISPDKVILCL
# T1 sequence (Q16531 whole entry partner): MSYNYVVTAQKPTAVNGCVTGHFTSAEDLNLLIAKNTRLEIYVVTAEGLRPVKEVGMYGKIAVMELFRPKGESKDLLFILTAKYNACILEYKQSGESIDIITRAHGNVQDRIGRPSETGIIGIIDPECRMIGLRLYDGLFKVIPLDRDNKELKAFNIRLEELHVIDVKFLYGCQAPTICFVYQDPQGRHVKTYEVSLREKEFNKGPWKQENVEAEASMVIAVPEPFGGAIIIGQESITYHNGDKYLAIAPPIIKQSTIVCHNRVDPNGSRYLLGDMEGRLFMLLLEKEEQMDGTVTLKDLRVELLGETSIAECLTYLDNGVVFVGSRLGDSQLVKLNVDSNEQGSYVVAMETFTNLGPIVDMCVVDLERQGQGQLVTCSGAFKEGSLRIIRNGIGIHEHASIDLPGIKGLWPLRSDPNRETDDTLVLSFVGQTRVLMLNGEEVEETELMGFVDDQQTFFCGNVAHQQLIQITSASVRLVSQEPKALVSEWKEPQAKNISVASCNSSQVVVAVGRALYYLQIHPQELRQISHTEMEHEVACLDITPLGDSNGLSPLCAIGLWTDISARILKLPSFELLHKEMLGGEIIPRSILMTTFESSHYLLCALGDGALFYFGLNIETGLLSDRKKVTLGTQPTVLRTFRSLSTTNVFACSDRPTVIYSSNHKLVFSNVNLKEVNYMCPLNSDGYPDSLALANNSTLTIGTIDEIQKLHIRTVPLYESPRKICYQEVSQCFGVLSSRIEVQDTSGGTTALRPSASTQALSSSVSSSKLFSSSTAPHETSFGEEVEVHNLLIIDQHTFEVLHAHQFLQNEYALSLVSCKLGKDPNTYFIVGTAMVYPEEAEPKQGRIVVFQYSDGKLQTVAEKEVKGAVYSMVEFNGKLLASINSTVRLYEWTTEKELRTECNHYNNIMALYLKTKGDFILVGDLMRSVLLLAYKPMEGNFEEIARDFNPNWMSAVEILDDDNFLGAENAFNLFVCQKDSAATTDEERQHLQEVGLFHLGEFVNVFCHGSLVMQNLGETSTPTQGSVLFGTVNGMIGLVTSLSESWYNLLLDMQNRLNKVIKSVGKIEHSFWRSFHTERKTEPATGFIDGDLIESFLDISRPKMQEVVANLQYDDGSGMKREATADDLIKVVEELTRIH
# [2] = target: T2, IKZF1 (Homo sapiens, UniProt Q13422+Q96SW2); assay: Western-blot assay, substrate protein degradation in hPBMCs: IKZF1; settings: for IKZF1 substrate protein remaining %: compounds at 50 nM and 500 nM, 24 hours; for substrate protein remaining % IKZF1: 24 hours of compound treatment, 50 nM and 500 nM
# T2 construct: effects of the compounds of the present disclosure on the expression of target proteins in cells; endogenous in cells; host or cells: human PBMCs (hPBMCs)
# [3] = target: T3, IKZF2 (Homo sapiens, UniProt Q96SW2+Q9UKS7); assay: Western-blot assay, substrate protein degradation in hPBMCs: IKZF2; settings: for IKZF2 substrate protein remaining %: compounds at 50 nM and 500 nM, 24 hours; for substrate protein remaining % IKZF2: 24 hours of compound treatment, 50 nM and 500 nM
# T3 construct: effects of the compounds of the present disclosure on the expression of target proteins in cells; endogenous in cells; host or cells: human PBMCs (hPBMCs)
# T3 sequence (Q9UKS7 whole entry): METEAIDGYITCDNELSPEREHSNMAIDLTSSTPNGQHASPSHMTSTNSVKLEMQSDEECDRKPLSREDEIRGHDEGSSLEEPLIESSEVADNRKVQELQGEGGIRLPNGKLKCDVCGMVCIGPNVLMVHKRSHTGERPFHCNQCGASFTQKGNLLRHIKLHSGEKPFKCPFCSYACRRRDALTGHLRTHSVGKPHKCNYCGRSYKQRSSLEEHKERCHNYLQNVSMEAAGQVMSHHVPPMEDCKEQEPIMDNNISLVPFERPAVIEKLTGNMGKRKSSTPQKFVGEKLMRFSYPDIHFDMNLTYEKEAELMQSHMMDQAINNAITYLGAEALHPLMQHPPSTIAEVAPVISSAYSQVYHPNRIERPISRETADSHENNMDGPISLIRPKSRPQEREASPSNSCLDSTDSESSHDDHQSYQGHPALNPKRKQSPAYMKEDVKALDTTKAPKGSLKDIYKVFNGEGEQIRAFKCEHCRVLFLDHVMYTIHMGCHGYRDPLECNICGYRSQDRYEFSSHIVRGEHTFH
# T3 sequence (Q96SW2 whole entry): as the sequence (Q96SW2 whole entry) above
# T3 sequence (Q16531 whole entry partner): as the sequence (Q16531 whole entry partner) above
# [4] = target: T4, IKZF3 (Homo sapiens, UniProt Q96SW2+Q9UKT9); assay: Western-blot assay, substrate protein degradation in hPBMCs: IKZF3; settings: for IKZF3 substrate protein remaining %: compounds at 50 nM and 500 nM, 24 hours; for substrate protein remaining % IKZF3: 24 hours of compound treatment, 50 nM and 500 nM
# T4 construct: effects of the compounds of the present disclosure on the expression of target proteins in cells; endogenous in cells; host or cells: human PBMCs (hPBMCs)
# T4 sequence (Q9UKT9 whole entry): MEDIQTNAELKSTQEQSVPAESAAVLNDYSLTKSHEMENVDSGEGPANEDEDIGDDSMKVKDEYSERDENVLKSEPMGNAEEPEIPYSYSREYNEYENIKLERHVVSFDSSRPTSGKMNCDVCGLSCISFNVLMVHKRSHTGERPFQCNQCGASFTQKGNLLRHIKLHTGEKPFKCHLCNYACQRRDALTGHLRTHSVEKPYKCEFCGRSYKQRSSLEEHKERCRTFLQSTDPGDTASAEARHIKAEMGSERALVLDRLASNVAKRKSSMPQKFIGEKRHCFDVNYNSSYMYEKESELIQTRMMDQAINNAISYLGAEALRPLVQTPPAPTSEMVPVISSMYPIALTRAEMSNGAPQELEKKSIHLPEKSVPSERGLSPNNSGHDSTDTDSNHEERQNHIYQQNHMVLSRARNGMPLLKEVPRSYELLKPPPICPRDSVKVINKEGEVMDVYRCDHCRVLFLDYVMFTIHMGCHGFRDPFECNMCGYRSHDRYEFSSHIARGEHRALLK
# T4 sequence (Q96SW2 whole entry): as the sequence (Q96SW2 whole entry) above
# T4 sequence (Q16531 whole entry partner): as the sequence (Q16531 whole entry partner) above
# [5] = target: T5, CK1α (Homo sapiens, UniProt P48729+Q96SW2); assay: Western-blot assay, substrate protein degradation in hPBMCs: CK1α; settings: for CK1α substrate protein remaining %: compounds at 50 nM and 500 nM, 24 hours; for substrate protein remaining % CK1α: 24 hours of compound treatment, 50 nM and 500 nM
# T5 construct: effects of the compounds of the present disclosure on the expression of target proteins in cells; endogenous in cells; host or cells: human PBMCs (hPBMCs)
# T5 sequence (P48729 whole entry): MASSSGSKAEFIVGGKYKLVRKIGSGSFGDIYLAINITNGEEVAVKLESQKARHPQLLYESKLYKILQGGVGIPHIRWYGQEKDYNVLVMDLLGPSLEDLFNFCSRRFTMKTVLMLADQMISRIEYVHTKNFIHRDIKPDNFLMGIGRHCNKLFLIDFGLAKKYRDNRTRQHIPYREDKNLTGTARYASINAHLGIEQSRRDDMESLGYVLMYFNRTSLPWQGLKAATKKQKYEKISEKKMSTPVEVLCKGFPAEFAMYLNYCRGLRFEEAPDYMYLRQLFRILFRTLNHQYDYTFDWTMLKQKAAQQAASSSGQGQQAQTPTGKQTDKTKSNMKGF
# T5 sequence (Q96SW2 whole entry): as the sequence (Q96SW2 whole entry) above
# T5 sequence (Q16531 whole entry partner): as the sequence (Q16531 whole entry partner) above
# [6] = target: T6, GSPT1 (Homo sapiens, UniProt P15170+Q96SW2); assay: Western-blot assay, substrate protein degradation in hPBMCs: GSPT1; settings: for GSPT1 substrate protein remaining %: compounds at 50 nM and 500 nM, 24 hours; for substrate protein remaining % GSPT1: 24 hours of compound treatment, 50 nM and 500 nM
# T6 construct: effects of the compounds of the present disclosure on the expression of target proteins in cells; endogenous in cells; host or cells: human PBMCs (hPBMCs)
# T6 sequence (P15170 whole entry): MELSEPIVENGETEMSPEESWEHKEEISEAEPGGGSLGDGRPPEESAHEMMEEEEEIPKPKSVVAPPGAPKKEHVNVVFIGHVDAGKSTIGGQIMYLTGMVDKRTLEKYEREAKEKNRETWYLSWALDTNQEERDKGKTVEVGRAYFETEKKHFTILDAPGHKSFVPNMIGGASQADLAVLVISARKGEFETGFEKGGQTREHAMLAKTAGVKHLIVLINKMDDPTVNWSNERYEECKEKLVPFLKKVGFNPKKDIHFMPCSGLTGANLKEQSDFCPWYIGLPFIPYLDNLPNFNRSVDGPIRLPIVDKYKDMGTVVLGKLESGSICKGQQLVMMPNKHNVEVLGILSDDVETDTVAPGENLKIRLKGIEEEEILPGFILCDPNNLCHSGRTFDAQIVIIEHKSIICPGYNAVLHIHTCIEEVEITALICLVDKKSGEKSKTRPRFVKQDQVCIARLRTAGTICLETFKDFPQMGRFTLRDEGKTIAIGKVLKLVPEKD
# T6 sequence (Q96SW2 whole entry): as the sequence (Q96SW2 whole entry) above
# T6 sequence (Q16531 whole entry partner): as the sequence (Q16531 whole entry partner) above
Structure (SMILES),WEE1 substrate protein remaining % [1],IKZF1 substrate protein remaining % [2],IKZF2 substrate protein remaining % [3],IKZF3 substrate protein remaining % [4],CK1α substrate protein remaining % [5],GSPT1 substrate protein remaining % [6],substrate protein remaining % WEE1 [1],substrate protein remaining % IKZF1 [2],substrate protein remaining % IKZF2 [3],substrate protein remaining % IKZF3 [4],substrate protein remaining % CK1α [5],substrate protein remaining % GSPT1 [6]
"O=C1CCN(N2C(=O)c3ccc(CN4CCN(c5ncc(Cl)cc5Cl)CC4)cc3C2=O)C(=O)N1 [GT-06969, 5-((4-(3,5-dichloropyridin-2-yl)piperazin-1-yl)methyl)-2-(2,4-dioxotetrahydropyrimidin-1(2H)-yl)isoindoline-1,3-dione]","A (""A"" is defined as 0% ≤ substrate protein remaining % ≤ 80%)","B (""B"" is defined as 80%< substrate protein remaining %≤ 100%)","A (""A"" is defined as 0% ≤ substrate protein remaining % ≤ 80%)","B (""B"" is defined as 80%< substrate protein remaining %≤ 100%)","B (""B"" is defined as 80%< substrate protein remaining %≤ 100%)","B (""B"" is defined as 80%< substrate protein remaining %≤ 100%)",–,–,–,–,–,–
"O=C1CCN(N2C(=O)c3ccc(CN4CCN(c5ccccc5Br)CC4)cc3C2=O)C(=O)N1 [GT-06727, 5-((4-(2-bromophenyl)piperazin-1-yl)methyl)-2-(2,4-dioxotetrahydropyrimidin-1(2H)-yl)isoindoline-1,3-dione]","B (""B"" is defined as 80%< substrate protein remaining %≤ 100%)","B (""B"" is defined as 80%< substrate protein remaining %≤ 100%)","A (""A"" is defined as 0% ≤ substrate protein remaining % ≤ 80%)","A (""A"" is defined as 0% ≤ substrate protein remaining % ≤ 80%)","A (""A"" is defined as 0% ≤ substrate protein remaining % ≤ 80%)","B (""B"" is defined as 80%< substrate protein remaining %≤ 100%)",–,–,–,–,–,–
"O=C1CCN(N2Cc3cc(CN4CC5CCC(C4)N5c4cccc(Cl)c4Cl)ccc3C2=O)C(=O)N1 [GT-07429, 1-(5-((8-(2,3-dichlorophenyl)-3,8-diazabicyclo[3.2.1]octan-3-yl)methyl)-1-oxoisoindolin-2-yl)dihydropyrimidine-2,4(1H,3H)-dione]",–,–,–,–,–,–,B (80%< substrate protein remaining %≤ 100%),A (0% ≤ substrate protein remaining % ≤ 80%),B (80%< substrate protein remaining %≤ 100%),B (80%< substrate protein remaining %≤ 100%),B (80%< substrate protein remaining %≤ 100%),B (80%< substrate protein remaining %≤ 100%)
"Cc1ccc(N2CCN(Cc3ccc4c(c3)CN(N3CCC(=O)NC3=O)C4=O)CC2)c(C)c1 [GT-06882, 1-(5-((4-(2,4-dimethylphenyl)piperazin-1-yl)methyl)-1-oxoisoindolin-2-yl)dihydropyrimidine-2,4(1H,3H)-dione]","A (""A"" is defined as 0% ≤ substrate protein remaining % ≤ 80%)","A (""A"" is defined as 0% ≤ substrate protein remaining % ≤ 80%)","B (""B"" is defined as 80%< substrate protein remaining %≤ 100%)","B (""B"" is defined as 80%< substrate protein remaining %≤ 100%)","B (""B"" is defined as 80%< substrate protein remaining %≤ 100%)","A (""A"" is defined as 0% ≤ substrate protein remaining % ≤ 80%)",–,–,–,–,–,–
"O=C1CCN(N2C(=O)c3ccc(CN4C5CC4CN(c4cccc(Cl)c4Cl)C5)cc3C2=O)C(=O)N1 [GT-05251, 5-((3-(2,3-dichlorophenyl)-3,6-diazabicyclo[3.1.1]heptan-6-yl)methyl)-2-(2,4-dioxotetrahydropyrimidin-1(2H)-yl)isoindoline-1,3-dione]","B (""B"" is defined as 80%< substrate protein remaining %≤ 100%)","B (""B"" is defined as 80%< substrate protein remaining %≤ 100%)","A (""A"" is defined as 0% ≤ substrate protein remaining % ≤ 80%)","B (""B"" is defined as 80%< substrate protein remaining %≤ 100%)","B (""B"" is defined as 80%< substrate protein remaining %≤ 100%)","B (""B"" is defined as 80%< substrate protein remaining %≤ 100%)",–,–,–,–,–,–
"O=C1CCN(N2C(=O)c3ccc(CN4CCC(c5ccccc5)CC4)cc3C2=O)C(=O)N1 [GT-06803, 2-(2,4-dioxotetrahydropyrimidin-1(2H)-yl)-5-((4-phenylpiperidin-1-yl)methyl)isoindoline-1,3-dione]","B (""B"" is defined as 80%< substrate protein remaining %≤ 100%)","B (""B"" is defined as 80%< substrate protein remaining %≤ 100%)","B (""B"" is defined as 80%< substrate protein remaining %≤ 100%)","B (""B"" is defined as 80%< substrate protein remaining %≤ 100%)","A (""A"" is defined as 0% ≤ substrate protein remaining % ≤ 80%)","B (""B"" is defined as 80%< substrate protein remaining %≤ 100%)",–,–,–,–,–,–
"O=C1CCN(N2Cc3cc(CN4CCN(c5nsc6cc(F)ccc56)CC4)ccc3C2=O)C(=O)N1 [GT-07500, 1-(5-((4-(6-fluorobenzo[d]isothiazol-3-yl)piperazin-1-yl)methyl)-1-oxoisoindolin-2-yl)dihydropyrimidine-2,4(1H,3H)-dione]",–,–,–,–,–,–,A (0% ≤ substrate protein remaining % ≤ 80%),A (0% ≤ substrate protein remaining % ≤ 80%),B (80%< substrate protein remaining %≤ 100%),B (80%< substrate protein remaining %≤ 100%),A (0% ≤ substrate protein remaining % ≤ 80%),A (0% ≤ substrate protein remaining % ≤ 80%)
"O=C1CCN(N2C(=O)c3ccc(CN4CCN(c5cncc(Cl)c5Cl)CC4)cc3C2=O)C(=O)N1 [GT-06972, 5-((4-(4,5-dichloropyridin-3-yl)piperazin-1-yl)methyl)-2-(2,4-dioxotetrahydropyrimidin-1(2H)-yl)isoindoline-1,3-dione]","A (""A"" is defined as 0% ≤ substrate protein remaining % ≤ 80%)","B (""B"" is defined as 80%< substrate protein remaining %≤ 100%)","A (""A"" is defined as 0% ≤ substrate protein remaining % ≤ 80%)","B (""B"" is defined as 80%< substrate protein remaining %≤ 100%)","B (""B"" is defined as 80%< substrate protein remaining %≤ 100%)","B (""B"" is defined as 80%< substrate protein remaining %≤ 100%)",–,–,–,–,–,–
"O=C1CCN(N2C(=O)c3ccc(CN4CCC(c5cccc(Cl)c5Cl)CC4)cc3C2=O)C(=O)N1 [GT-05250, 5-((4-(2,3-dichlorophenyl)piperidin-1-yl)methyl)-2-(2,4-dioxotetrahydropyrimidin-1(2H)-yl)isoindoline-1,3-dione]","B (""B"" is defined as 80%< substrate protein remaining %≤ 100%)","B (""B"" is defined as 80%< substrate protein remaining %≤ 100%)","A (""A"" is defined as 0% ≤ substrate protein remaining % ≤ 80%)","B (""B"" is defined as 80%< substrate protein remaining %≤ 100%)","B (""B"" is defined as 80%< substrate protein remaining %≤ 100%)","B (""B"" is defined as 80%< substrate protein remaining %≤ 100%)",–,–,–,–,–,–
"O=C1CCN(N2C(=O)c3ccc(CN4CCC(N5C(=O)COc6cc(F)ccc65)CC4)cc3C2=O)C(=O)N1 [GT-07683, 2-(2,4-dioxotetrahydropyrimidin-1(2H)-yl)-5-((4-(7-fluoro-3-oxo-2,3-dihydro-4H-benzo[b][1,4]oxazin-4-yl)piperidin-1-yl)methyl)isoindoline-1,3-dione]",–,–,–,–,–,–,B (80%< substrate protein remaining %≤ 100%),B (80%< substrate protein remaining %≤ 100%),B (80%< substrate protein remaining %≤ 100%),B (80%< substrate protein remaining %≤ 100%),B (80%< substrate protein remaining %≤ 100%),A (0% ≤ substrate protein remaining % ≤ 80%)
